Source: patent US20230129359A1, “MUSCARINIC RECEPTOR 4 ANTAGONISTS AND METHODS OF USE” (Neurocrine Biosciences, Inc., priority 2020, published 2023)

What follows are compounds tested against T1, human M4 receptor (Homo sapiens, UniProt P08173) (assay: Radioligand ([3H]N-methylscopolamine) binding assay, membranes from CHO cells expressing human M4 receptor). Settings: not given.
T1 construct: expressed in transfected cells; host or cells: CHO cells
T1 sequence (P08173 1-479): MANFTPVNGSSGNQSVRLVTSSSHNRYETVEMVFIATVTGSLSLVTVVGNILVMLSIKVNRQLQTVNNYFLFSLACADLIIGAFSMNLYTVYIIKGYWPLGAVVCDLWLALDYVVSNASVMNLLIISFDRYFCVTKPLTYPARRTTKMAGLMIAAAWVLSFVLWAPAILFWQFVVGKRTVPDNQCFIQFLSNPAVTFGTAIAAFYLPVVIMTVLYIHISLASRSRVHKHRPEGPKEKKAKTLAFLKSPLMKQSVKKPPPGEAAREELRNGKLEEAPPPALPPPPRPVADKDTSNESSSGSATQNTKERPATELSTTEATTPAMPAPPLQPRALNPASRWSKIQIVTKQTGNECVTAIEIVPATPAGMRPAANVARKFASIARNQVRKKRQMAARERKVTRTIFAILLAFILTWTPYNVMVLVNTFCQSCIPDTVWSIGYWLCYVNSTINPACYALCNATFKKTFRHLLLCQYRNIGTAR
Summary of the method: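 Ki values derive from displacement of tritiated N-methylscopolamine (1.5 nM) from human M4 receptor in CHO membranes. Membranes, radioligand and twelve-point compound series were incubated together at 37 °C for 90 minutes in pH 7.4 HEPES/NaCl/MgCl2/EDTA buffer. Rapid vacuum filtration over polyethylenimine-pretreated filters was followed by radioactivity counting.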

| Compound | Ki [nM] |
| --- | --- |
| O=C(OC1CC2(C1)CN(Cc1ccccc1)C2)N1C2COCC1CN(c1cnc(C(F)(F)F)cn1)C2 [Compound 168, 2-benzyl-2-azaspiro[3.3]heptan-6-yl 7-[5-(trifluoromethyl)pyrazin-2-yl]-3-oxa-7,9-diazabicyclo[3.3.1]nonane-9-carboxylate] | 100 to 1000 |

Same assay, conditions: Ki against human M4 receptor; membranes from CHO cells; tritiated N-methylscopolamine 1.5 nM; read-out: K

| Compound | Ki [nM] |
| --- | --- |
| O=C(OC1CC2(C1)CN(Cc1ccccc1)C2)N1CC2COCC(C1)N2c1ncc(C(F)(F)F)cn1 [Compound 495, 2-benzyl-2-azaspiro[3.3]heptan-6-yl 9-[5-(trifluoromethyl)pyrimidin-2-yl]-3-oxa-7,9-diazabicyclo[3.3.1]hnonane-7-carboxylate] | 10 to 100 |
| N#Cc1cnc(N2CC3CC(C2)N3C(=O)OC2CC3(C2)CN(Cc2ccccc2)C3)cn1 [Compound 111, 2-benzyl-2-azaspiro[3.3]heptan-6-yl 3-(5-cyanopyrazin-2-yl)-3,6-diazabicyclo[3.1.1]heptane-6-carboxylate] | 100 to 1000 |
| C[C@@H]1CN(c2nc3ccc(F)cc3s2)CCN1C(=O)NC1CC2(C1)CN(Cc1ccccc1)C2 [Compound 234, (2R)-N-{2-benzyl-2-azaspiro[3.3]heptan-6-yl}-4-(6-fluoro-1,3-benzothiazol-2-yl)-2-methylpiperazine-1-carboxamide] | < 10 |
| C[C@@H]1CN(c2ncc(C(F)(F)F)cc2F)C[C@H](C)N1C(=O)NC1CC2(C1)CN(Cc1ccccc1)C2 [Compound 227, (2R,6S)-N-{2-benzyl-2-azaspiro[3.3]heptan-6-yl}-4-[3-fluoro-5-(trifluoromethyl)pyridin-2-yl]-2,6-dimethylpiperazine-1-carboxamide] | < 10 |
| [2H]c1c([2H])c([2H])c(C([2H])N2CC3(CC(NC(=O)N4[C@H](C)CN(c5ncc(C(F)(F)F)cn5)C[C@@H]4C)C3)C2)c([2H])c1[2H] (stereo partly drawn) [Compound 274, (2R,6S)-2,6-dimethyl-N-{2-[(^2H5)phenyl(^2H1)methyl]-2-azaspiro[3.3]heptan-6-yl}-4-[5-(trifluoromethyl)pyrimidin-2-yl]piperazine-1-carboxamide] | < 10 |
| C[C@@H]1CN(c2cnc(C(F)(F)F)cn2)C[C@H](C)N1C(=O)NC1CC2(C1)CN(Cc1ccc(F)cc1)C2 [Compound 267, (2R,6S)-N-{2-[(4-fluorophenyl)methyl]-2-azaspiro[3.3]heptan-6-yl}-2,6-dimethyl-4-[5-(trifluoromethyl)pyrazin-2-yl]piperazine-1-carboxamide] | 10 to 100 |
| C[C@@H]1CN(c2cnc(C(F)(F)F)cn2)C[C@H](C)N1C(=O)NCC1CC2(C1)CN(Cc1ccccc1)C2 [Compound 67, (2R,6S)-N-({2-benzyl-2-azaspiro[3.3]hpetan-6-yl}methyl)-2,6-dimethyl-4-[5-(trifluoromethyl)pyrazin-2-yl]piperazine-1-carboxamide] | 100 to 1000 |
| O=C(OC1CC2(C1)CN(Cc1ccccc1)C2)N1C2COCC1CN(c1nc3ccc(C(F)(F)F)cc3s1)C2 [Compound 437, 2-benzyl-2-azaspiro[3.3]heptan-6-yl 7-[6-(trifluoromethyl)-1,3-benzothiazol-2-yl]-3-oxa-7,9-diazabicyclo[3.3.1]nonane-9-carboxylate] | 10 to 100 |
| C[C@@H]1CN(c2cnc3ccccc3n2)C[C@@H](C)N1C(=O)OC1CC2(C1)CN(Cc1ccccc1)C2 [Compound 185, 2-benzyl-2-azaspiro[3.3]heptan-6-yl (2R,6R)-2,6-dimethyl-4-(quinoxalin-2-yl)piperazine-1-carboxylate] | 100 to 1000 |
| COc1ccc(CN2CC3(CC(NC(=O)N4[C@H](C)CN(c5ncc(C(F)(F)F)cn5)C[C@@H]4C)C3)C2)cn1 [Compound 305, (2R,6S)-N-{2-[(6-methoxypyridin-3-yl)methyl]-2-azaspiro[3.3]heptan-6-yl}-2,6-dimethyl-4-[5-(trifluoromethyl)pyrimidin-2-yl]piperazine-1-carboxamide] | 10 to 100 |

Now from value to compound:

| Ki [nM] | Compound |
| --- | --- |
| 100 to 1000 | C[C@@H]1CN(c2ncc(C(F)(F)F)cn2)C[C@H](C)N1C(=O)NC1CC2(C1)CN(CCc1ccccc1)C2 [Compound 311, (2R,6S)-2,6-dimethyl-N-[2-(2-phenylethyl)-2-azaspiro[3.3]heptan-6-yl]-4-[5-(trifluoromethyl)pyrimidin-2-yl]piperazine-1-carboxamide] |
| 100 to 1000 | C[C@@H]1CN(c2cnc(C(F)(F)F)cn2)[C@@H](C)CN1C(=O)OC1(C(F)F)CC2(CN(Cc3ccccc3)C2)C1 [Compound 347, 2-benzyl-6-(difluoromethyl)-2-azaspiro[3.3]heptan-6-yl (2R,5S)-2,5-dimethyl-4-[5-(trifluoromethyl)pyrazin-2-yl]piperazine-1-carboxylate] |
| < 10 | C[C@@H]1CN(c2ncc(C(F)(F)F)cn2)C[C@H](C)N1C(=O)NC1CC2(C1)CN(Cc1ccc(Cl)s1)C2 [Compound 340, (2R,6S)-N-{2-[(5-chlorothiophen-2-yl)methyl]-2-azaspiro[3.3]heptan-6-yl}-2,6-dimethyl-4-[5-(trifluoromethyl)pyrimidin-2-yl]piperazine-1-carboxamide] |
| < 10 | C[C@@H]1CN(c2cnc3cc(C(F)(F)F)ccc3n2)C[C@H](C)N1C(=O)OC1CC2(C1)CN(Cc1ccccc1)C2 [Compound 378, 2-benzyl-2-azaspiro[3.3]heptan-6-yl (2R,6S)-2,6-dimethyl-4-[6-(trifluoromethyl)quinoxalin-2-yl]piperazine-1-carboxylate] |
| 10 to 100 | C[C@@H]1CN(c2ncc(C(F)(F)F)cn2)C[C@H](C)N1C(=O)NC1CC2(C1)CN(Cc1ccc(C(F)(F)F)cc1)C2 [Compound 323, (2R,6S)-2,6-dimethyl-N-(2-{[4-(trifluoromethyl)phen-yl]methyl}-2-aza-spiro[3.3]heptan-6-yl)-4-[5-(trifluoromethyl)pyrimidin-2-yl]piperazine-1-carboxamide] |
| < 10 | C[C@@H]1CN(c2ncc(C(F)(F)F)cn2)C[C@H](C)N1C(=O)NC1CC2(C1)CN(Cc1ccc(O)cc1)C2 [Compound 319, (2R,6S)-N-{2-[(4-hydroxyphenyl)methyl]-2-azaspiro[3.3]heptan-6-yl}-2,6-dimethyl-4-[5-(trifluoromethyl)pyrimidin-2-yl]piperazine-1-carboxamide] |
| 10 to 100 | CC(C)c1ccc(CN2CC3(CC(NC(=O)N4[C@H](C)CN(c5ncc(C(F)(F)F)cn5)C[C@@H]4C)C3)C2)cc1 [Compound 316, (2R,6S)-2,6-dimethyl-N-(2-{[4-(propan-2-yl)phenyl]methyl}-2-azaspiro[3.3]heptan-6-yl)-4-[5-(trifluroomethyl)pyrimidin-2-yl]piperazine-1-carboxamide] |
| 10 to 100 | C[C@@H]1CN(c2cnc3cc(F)ccc3n2)[C@@H](C)CN1C(=O)OC1CC2(C1)CN(Cc1ccc(F)cc1)C2 [Compound 397, 2-[(4-fluorophenyl)methyl]-2-azaspiro[3.3]heptan-6-yl (2R,5S)-4-(6-fluoroquinoxalin-2-yl)-2,5-dimethylpiperazin-1-carboxylate] |
| < 10 | C[C@@H]1CN(c2ncc(C(F)(F)F)c(N)n2)C[C@H](C)N1C(=O)OC1CC2(C1)CN(Cc1ccc(F)cc1)C2 [Compound 466, 2-[(4-fluorophenyl)methyl]-2-azaspiro[3.3]heptan-6-yl (2R,6S)-4-[4-amino-5 (trifluoromethyl)pyrimidin-2-yl]-2,6-dimethylpiperazine-1-carboxylate] |
| 10 to 100 | C[C@@H]1CN(c2ncc(C(F)(F)F)cn2)[C@@H](C)CN1C(=O)OC1(C(F)F)CC2(CN(Cc3ccccc3)C2)C1 [Compound 346, 2-benzyl-6-(difluoromethyl)-2-azaspiro[3.3]heptan-6-yl (2R,5S)-2,5-dimethyl-4-[5-(trifluoromethyl)pyrimidin-2-yl]piperazine-1-carboxylate] |
| < 10 | C[C@@H]1CN(c2nc3cc(F)ccc3s2)C[C@H](C)N1C(=O)OC1CC2(C1)CN(Cc1ccccc1)C2 [Compound 438, 2-benzyl-2-azaspiro[3.3]heptan-6-yl (2R,6S)-4-(5-fluoro-1,3-benzothiazol-2-yl)-2,6-dimethylpiperazine-1-carboxylate] |
| 10 to 100 | C[C@@H]1CN(c2ccc(C(F)(F)F)cc2)CCN1C(=O)OC1CC2(C1)CN(Cc1ccccc1)C2 [Compound 528, 2-benzyl-2-azaspiro[3.3]heptan-6-yl (2R)-2-methyl-4-[4-(trifluoromethyl)phenyl]pipera-zine-1-carboxylate] |
| 100 to 1000 | C[C@@H]1CN(c2ncc(C(F)(F)F)cn2)[C@@H](C)CN1C(=O)OC1CC2(C1)CN(Cc1ccc(S(C)(=O)=O)cc1)C2 [Compound 501, 2-[(4-methanesulfonylphenyl)methyl]-2-azaspiro[3.3]heptan-6-yl (2R,56S)-2,5-dimethyl-4-[5-(trifluoromethyl)pyrimidin-2-yl]piperazine-1-carboxylate] |
| 10 to 100 | COc1ccc2nc(N3C[C@@H](C)N(C(=O)OC4CC5(C4)CN(Cc4ccc(F)cc4)C5)[C@@H](C)C3)cnc2c1 [Compound 395, 2-[(4-fluorophenyl)methyl]-2-azaspiro[3.3]heptan-6-yl (2R,6S)-4-(6-methoxyquinoxalin-2-yl)-2,6-dimethylpiperazine-1-carboxylate] |
| 10 to 100 | C[C@@H]1CN(c2nc3ccc(F)cc3o2)C[C@@H](C)N1C(=O)OC1CC2(C1)CN(Cc1ccccc1)C2 [Compound 445, 2-benzyl-2-azaspiro[3.3]heptan-6-yl (2R,6R)-4-(6-fluoro-1,3-benzoxazol-2-yl)-2,6-dimethylpiperazine-1-carboxylate] |
